Experimental data reported in article PMC10327491 (Nature microbiology, 2022).

Target: T1, BtSULT (Bacteroides thetaiotaomicron, UniProt Q8AAP8)
T1 sequence (Q8AAP8 1-368): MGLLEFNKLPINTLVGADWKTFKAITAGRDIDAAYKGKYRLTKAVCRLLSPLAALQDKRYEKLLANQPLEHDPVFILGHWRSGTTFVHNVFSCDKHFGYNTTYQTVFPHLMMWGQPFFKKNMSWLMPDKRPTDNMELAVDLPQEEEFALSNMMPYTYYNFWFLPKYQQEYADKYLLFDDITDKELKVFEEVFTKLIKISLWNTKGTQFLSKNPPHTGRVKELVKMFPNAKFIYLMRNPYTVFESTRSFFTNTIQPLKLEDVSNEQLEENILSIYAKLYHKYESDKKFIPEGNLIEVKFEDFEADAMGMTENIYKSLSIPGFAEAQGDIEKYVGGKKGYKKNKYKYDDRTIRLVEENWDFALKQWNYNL
Assay: UPLC-MS of cholesterol sulfate formation
Format: biochemical
Conditions: 100 uM PAPS, 50 uM cholesterol acceptor, pH 7, 37 °C; sulfonate donor

Nc1ncnc2c1ncn2[C@@H]1O[C@H](COP(=O)(O)OS(=O)(=O)O)[C@@H](OP(=O)(O)O)[C@H]1O [adenosine 3'-phosphate-5'-phosphosulfate]
UPLC-MS of cholesterol sulfate formation: BtSULT encodes a sulfotransferase that utilizes PAPS to sulfonate Ch
